ChEMBL document CHEMBL1131779, “Synthesis and evaluation of potential complement inhibitory semisynthetic analogs of oleanolic acid” (Bioorg Med Chem Lett, 1999)

Legend:
[1] = species on record: Homo sapiens; assay: The compound was tested in vitro for its inhibition of the classical pathway activation of human complement; assay type: functional
[2] = In vitro therapeutic index was determined. (Therapeutic index = IC50 cytotoxicity/IC50 complement inhibition); assay type: functional
[3] = system: SK-MEL; assay: Compound was tested for its cytotoxicity against human malignant melanoma cell line SK-MEL; assay type: functional, cell-based
[4] = species on record: Homo sapiens; assay: The compound was tested in vitro for its inhibition of the classical pathway activation of human complement; Not active; assay type: functional
[5] = The compound was tested for its apoptotic activity; No DNA migration observed; assay type: functional
[6] = system: SK-MEL; assay: Compound was tested for its cytotoxicity against human malignant melanoma cell line SK-MEL; NA = Not active; assay type: functional, cell-based
[7] = The compound was tested for its apoptotic activity; no DNA migration observed; assay type: functional

SMILES	IC50 [1] [µM]	TI [2]	IC50 [3] [µM]	IC50 [4]	Apoptotic activity [5]	IC50 [6]	Apoptotic activity [7]
CC1(C)CC[C@]2(C(=O)NCCCCC(=O)O)CC[C@]3(C)C(=CCC4[C@@]5(C)CC[C@H](O)C(C)(C)C5CC[C@]43C)[C@@H]2C1 (some centres undefined)	31.8	3.99	127				
CC(=O)O[C@H]1CC[C@@]2(C)C(CC[C@]3(C)C2C(=O)C=C2[C@@H]4CC(C)(C)CC[C@]4(C(=O)O)CC[C@]23C)C1(C)C (some centres undefined)				Not Active	No DNA migration observed	Not Active	
CC1(C)CC[C@]2(C(N)=O)CC[C@]3(C)C(=CCC4[C@@]5(C)CC[C@H](O)C(C)(C)C5CC[C@]43C)[C@@H]2C1 (some centres undefined)				Not Active	No DNA migration observed	Not Active	
CC1(C)CC[C@]2(C(=O)O)CC[C@]3(C)C(=CCC4[C@@]5(C)CC[C@H](OC(=O)COCC(=O)O)C(C)(C)C5CC[C@]43C)[C@@H]2C1 (some centres undefined)	31.4	2.96	93				
C=C(C)[C@@H]1CC[C@]2(C(=O)O)CC[C@]3(C)[C@H](CC[C@@H]4[C@@]5(C)CC[C@H](O)C(C)(C)[C@@H]5CC[C@]43C)[C@@H]12 [BETULINIC ACID]	577	0.06	35				
CC(=O)O[C@H]1CC[C@]2(C)[C@H]3CC=C4[C@@H]5CC(C)(C)CC[C@]5(C(=O)O)CC[C@@]4(C)[C@]3(C)CC[C@H]2C1(C)C [ACETYL OLEANOLIC ACID]				Not Active		Not Active	no DNA migration observed
CC(C)(CC(=O)O)CC(=O)O[C@H]1CC[C@@]2(C)C(CC[C@]3(C)C2CC=C2[C@@H]4CC(C)(C)CC[C@]4(C(=O)O)CC[C@]23C)C1(C)C (some centres undefined)	103	0.83	86				
CC1(C)CC[C@]2(C(=O)O)CC[C@]3(C)C(=CC[C@@H]4[C@@]5(C)CC[C@H](O)C(C)(C)[C@@H]5CC[C@]43C)[C@@H]2C1 [OLEANOLIC_ACID]	72.3	1.55	112				no DNA migration observed
CC(=O)O[C@H]1CC[C@@]2(C)C(CC[C@]3(C)C2CC=C2[C@@H]4CC(C)(C)CC[C@]4(C(N)=O)CC[C@]23C)C1(C)C (some centres undefined)			70	Not Active	No DNA migration observed		
CC1(C)CC[C@]2(CO)CC[C@]3(C)C(=CCC4[C@@]5(C)CC[C@H](O)C(C)(C)C5CC[C@]43C)[C@@H]2C1 (some centres undefined)			105	Not Active	No DNA migration observed		
CC1(C)CC[C@]2(C(=O)O)CC[C@]3(C)C(=CC(=O)C4[C@@]5(C)CC[C@H](O)C(C)(C)C5CC[C@]43C)[C@@H]2C1 (some centres undefined)	234	0.56	131				
COC(=O)[C@]12CCC(C)(C)C[C@H]1C1=CC[C@@H]3[C@@]4(C)CC[C@H](O)C(C)(C)[C@@H]4CC[C@@]3(C)[C@]1(C)CC2 [METHYL OLEANOLATE]			103	Not Active	No DNA migration observed		
CC1(C)CC[C@]2(C(=O)O)CC[C@]3(C)C(=CCC4[C@@]5(C)CC[C@H](OC(=O)CC(C)(C)C(=O)O)C(C)(C)C5CC[C@]43C)[C@@H]2C1 (some centres undefined)	108	0.71	77				
CC1(C)CC[C@]2(C(=O)O)CC[C@]3(C)C(=CC[C@@H]4[C@@]5(C)CCC(=O)C(C)(C)[C@@H]5CC[C@]43C)[C@@H]2C1 [OLEANONIC ACID]			31	Not Active			
CC1(C)CC[C@]2(C(=O)NCC(=O)O)CC[C@]3(C)C(=CC[C@@H]4[C@@]5(C)CC[C@H](O)C(C)(C)[C@@H]5CC[C@]43C)[C@@H]2C1	146	0.78	115		No DNA migration observed		
CC1(C)CC[C@]2(C(=O)NCCCCCCCCCCC(=O)O)CC[C@]3(C)C(=CCC4[C@@]5(C)CC[C@H](O)C(C)(C)C5CC[C@]43C)[C@@H]2C1 (some centres undefined)				Not Active	No DNA migration observed	Not Active	
